Results: patent US20220054465A1, “(PYRIDIN-2-YL)AMINE DERIVATIVES AS TGF-BETA R1 (ALK5) INHIBITORS FOR THE TREATMENT OF CANCER” (Nexys Therapeutics, Inc., priority 2018, published 2022)

System: HEK-Blue TGFβ cell
Assay: HEK-Blue TGFβ cellular reporter gene assay (SEAP readout)
Format: cell-based
Conditions: HEK-Blue TGFβ cells stimulated with TGF-β, 22-23 h incubation, SEAP read at 630 nm
Procedure: HEK-Blue TGFβ Cellular Reporter Gene Assay:
HEK-Blue TGFβ cell was purchased from Invivogen. Cell suspension of 2.5×10^5 cells/ml was prepared using Test Medium (DMEM containing 0.5% v/v heat-inactivated FBS). TGF-β working solution (6 ng/ml) was obtained through diluting TGF-β stock solution (10 μg/ml) by Test Medium before use. Eight different concentrations of all compounds were obtained by 3× gradient dilution method using TGF-β working solution. Add 100 μl of Test Medium (Vehicle) or test article or TGF-β working solution per well of a flat-bottom 96-well plate. Add 100 μl of HEK-Blue TGF-β cell suspension per well. Incubate the plate at 37° C. in a CO2 incubator for 22-23 h. Add 150 μl of resuspended QUANTI-Blue per well of a new flat-bottom 96-well plate. Add 30 μl of induced HEK-Blue TGF-β cells supernatant. Avoid pipetting at the bottom of wells. Incubate the plate at 37° C. incubator for 30-40 min. Determine secreted embryonic alkaline phosphatase (SEAP) levels using a spectrophotometer at 630 nm.
The inhibition was calculated using the equation: […]

Compound	IC50 [nM]
Cc1nc(-c2ccccc2)c(Oc2ccnc(Nc3cccc(C(C)(C)C(=O)O)c3)c2)cc1C(C)(C)O [Example 103]	> 10000
CC(C)(C(=O)O)c1cccc(Nc2cc(Oc3ccc(C4CC4)nc3-c3ccccc3)ccn2)c1 [Example 105]	130
CCCc1ccc(Oc2ccnc(Nc3cccc(C(C)(C)C(=O)O)c3)c2)c(-c2ccccc2)n1 [Example 106]	120
CC(C)c1ccc(Oc2ccnc(Nc3cccc(C(C)(C)C(=O)O)c3)c2)c(-c2ccccc2)n1 [Example 107]	180
Cc1ccc(Oc2ccnc(Nc3cccc(C(C)(C)C(=O)O)c3)c2)c(C2CCOCC2)n1 [Example 108]	900
Cc1cc(Oc2ccnc(Nc3cccc(C(C)(C)CC(=O)O)c3)c2)c(-c2ccccn2)nc1C [Example 109]	51
Cc1ccc(Oc2ccnc(Nc3cccc(C(C)(C)CC(=O)O)c3)c2)c(-c2ccccc2)n1 [Example 110]	30
O=C(O)c1cccc(Nc2cc(Oc3cn(C4CC4)nc3C3CCOCC3)ccn2)c1 [Example 111]	6200
Cc1cc(Nc2cc(Oc3cn(C4CC4)nc3C3CCOCC3)ccn2)cc(C(=O)O)c1 [Example 112]	1670
CC(C)(C(=O)O)c1ccc(Nc2cc(Oc3cn(C4CC4)nc3C3CCOCC3)ccn2)cc1 [Example 113]	510
Cc1ccc(Nc2cc(Oc3cn(C4CC4)nc3C3CCOCC3)ccn2)cc1C(=O)O [Example 114]	2540
Cc1ccc(Nc2cc(Oc3cn(C4CC4)nc3C3CCOCC3)ccn2)cc1CC(=O)O [Example 115]	1100
O=C(O)c1cc(Nc2cc(Oc3cn(C4CC4)nc3C3CCOCC3)ccn2)ccn1 [Example 117]	> 10000
CC(C)(C(=O)O)c1cccc(Nc2cc(Oc3cn(C4CCC4)nc3C3CCOCC3)ccn2)c1 [Example 118]	310
CC(C)(C(=O)O)c1cccc(Nc2cc(Oc3cn(C4CC4)nc3-c3ccccc3)ccn2)c1 [Example 119]	13
Cn1cc(Oc2ccnc(Nc3cccc(C(C)(C)C(=O)O)c3)c2)c(-c2ccccc2)n1 [Example 120]	50
CC(C)(C(=O)O)c1cccc(Nc2cc(Oc3cn(C(F)F)nc3-c3ccccc3)ccn2)c1 [Example 121]	78
CCn1cc(Oc2ccnc(Nc3cccc(C(C)(C)C(=O)O)c3)c2)c(-c2ccccc2)n1 [Example 122]	29
CC(C)(C(=O)O)c1cccc(Nc2cc(Oc3cn(CC(F)F)nc3-c3ccccc3)ccn2)c1 [Example 123]	180
CC(C)n1cc(Oc2ccnc(Nc3cccc(C(C)(C)C(=O)O)c3)c2)c(-c2ccccc2)n1 [Example 124]	190
CC(C)(C(=O)O)c1cccc(Nc2cc(Oc3cn(C4CCC4)nc3-c3ccccc3)ccn2)c1 [Example 125]	66
CC(C)(C(=O)O)c1cccc(Nc2cc(Oc3cn(C4COC4)nc3-c3ccccc3)ccn2)c1 [Example 126]	200
CC(C)(C(=O)O)c1cccc(Nc2cc(Oc3cn(C4CC4)nc3C3CCCCC3)ccn2)c1 [Example 127]	12

Compound	IC50 [nM]
CC(C)(C(=O)O)c1cccc(Nc2cc(Oc3cn(C4CC4)nc3C3CCCC3)ccn2)c1 [Example 128]	22
CC(C)(C(=O)O)c1cccc(Nc2cc(Oc3cn(C4CC4)nc3C3CCC3)ccn2)c1 [Example 129]	29
CC(C)(C(=O)O)c1cccc(Nc2cc(Oc3cn(C4CC4)nc3-c3ccccn3)ccn2)c1 [Example 130]	> 10000
Cc1ccc(Oc2ccnc(Nc3cccc(C(F)(F)C(=O)O)c3)c2)c(-c2ccccc2)n1 [Example 131, 2,2-difluoro-2-(3-((4-((6-methyl-2-phenylpyridin-3-yl)oxy)pyridin-2-yl)amino)phenyl)acetic acid]	1730
O=C(O)C(F)(F)c1cccc(Nc2cc(Oc3cn(C4CC4)nc3-c3ccccc3)ccn2)c1 [Example 132, 2-(3-((4-((1-cyclopropyl-3-phenyl-1H-pyrazol-4-yl)oxy)pyridin-2-yl)amino)phenyl)-2,2-difluoroacetic acid]	> 10000
CCc1ccc(Oc2ccnc(Nc3cccc(CC(C)(C)C(=O)O)c3)c2)c(C)n1 [Example 133, 3-(3-((4-((6-ethyl-2-methylpyridin-3-yl)oxy)pyridin-2-yl)amino)phenyl)-2,2-dimethylpropanoic acid]	28
Cc1cc(Nc2cc(Oc3cc(C)c(C)nc3-c3ccccn3)ccn2)cc(C(C)(C)C(=O)O)c1 [Example 134]	78
Cc1ccc(Nc2cc(Oc3cc(C)c(C)nc3-c3ccccn3)ccn2)cc1C(C)(C)C(=O)O [Example 136]	100
Cc1cc(Oc2ccnc(Nc3cccc(CC(C)(C)C(=O)O)c3)c2)c(-c2ccccn2)nc1C [Example 137]	71
CCc1ccc(Oc2ccnc(Nc3cccc(CCC(=O)O)c3)c2)c(-c2ccccn2)n1 [Example 138]	49
CCc1nc(-c2ccccn2)c(Oc2ccnc(Nc3cccc(CCC(=O)O)c3)c2)cc1C [Example 139]	42
Cc1ccc(Oc2ccnc(Nc3cccc(CC(C)(C)C(=O)O)c3)c2)c(-c2ccccc2)n1 [Example 140]	35
Cc1cc(CC(C)(C)C(=O)O)cc(Nc2cc(Oc3ccc(C)nc3-c3ccccc3)ccn2)c1 [Example 141]	12
Cc1cc(Nc2cc(Oc3ccc(C)nc3-c3ccccc3)ccn2)cc(C(C)(C)C(=O)O)c1 [Example 142]	7
Cc1cc(Nc2cc(Oc3cc(C)c(C)nc3C3CCOCC3)ccn2)cc(C(C)(C)C(=O)O)c1 [Example 143]	130
CCc1ccc(Oc2ccnc(Nc3cc(C)cc(C(C)(C)C(=O)O)c3)c2)c(C)n1 [Example 144]	75
CCc1ccc(Oc2ccnc(Nc3cc(C)cc(CC(C)(C)C(=O)O)c3)c2)c(C)n1 [Example 145]	33
CCc1ccc(Oc2ccnc(Nc3cccc(CCC(=O)O)c3)c2)c(C)n1 [Example 146]	21
CCc1ccc(Oc2ccnc(Nc3cc(C)cc(CCC(=O)O)c3)c2)c(C)n1 [Example 147]	25
CCc1nc(C)c(Oc2ccnc(Nc3cc(C)cc(C(C)(C)C(=O)O)c3)c2)cc1C [Example 148]	34
CCc1nc(C)c(Oc2ccnc(Nc3cccc(CCC(=O)O)c3)c2)cc1C [Example 149]	21
CCc1nc(C)c(Oc2ccnc(Nc3cc(C)cc(CCC(=O)O)c3)c2)cc1C [Example 150]	27
CCc1nc(C)c(Oc2ccnc(Nc3cccc(CC(C)(C)C(=O)O)c3)c2)cc1C [Example 151]	30

Compound	IC50 [nM]
CCc1nc(C)c(Oc2ccnc(Nc3cc(C)cc(CC(C)(C)C(=O)O)c3)c2)cc1C [Example 152]	20
CCc1nc(C)c(Oc2ccnc(Nc3cc(C)cc(C(C)(C)C(=O)O)c3)c2)cc1Cl [Example 153]	70
CCc1nc(C)c(Oc2ccnc(Nc3cccc(CCC(=O)O)c3)c2)cc1Cl [Example 154]	16
CCc1nc(C)c(Oc2ccnc(Nc3cccc(CC(C)(C)C(=O)O)c3)c2)cc1Cl [Example 155]	30
CCc1nc(C)c(Oc2ccnc(Nc3cc(C)cc(CC(C)(C)C(=O)O)c3)c2)cc1Cl [Example 156]	23
Cc1cc(Nc2cc(Oc3cc(Cl)c(C)nc3C)ccn2)cc(C(C)(C)C(=O)O)c1 [Example 157]	27
Cc1cc(CC(C)(C)C(=O)O)cc(Nc2cc(Oc3cc(Cl)c(C)nc3C)ccn2)c1 [Example 158]	37
CC(C)(C(=O)CO)c1cccc(Nc2cc(Oc3cn(C4CC4)nc3C3CCOCC3)ccn2)c1 [Example 159]	140
CC(C)(Cc1cccc(Nc2cc(Oc3cn(C4CC4)nc3C3CCOCC3)ccn2)c1)C(=O)O [Example 160]	210
Cc1cc(CC(C)(C)C(=O)O)cc(Nc2cc(Oc3cn(C4CC4)nc3C3CCOCC3)ccn2)c1 [Example 162]	120
O=C(O)Cc1cccc(Nc2cc(Oc3cn(C4CC4)nc3C3CCOCC3)ccn2)c1 [Example 163]	3600
Cc1cc(CC(=O)O)cc(Nc2cc(Oc3cn(C4CC4)nc3C3CCOCC3)ccn2)c1 [Example 164]	1110
Cc1cc(Nc2cc(Oc3cn(C(C)C)nc3C3CCOCC3)ccn2)cc(C(C)(C)C(=O)O)c1 [Example 167]	620
CC(C)(Cc1cccc(Nc2cc(Oc3cn(C4CC4)nc3-c3ccccc3)ccn2)c1)C(=O)O [Example 168]	210
Cc1cc(Nc2cc(Oc3cn(C4CC4)nc3-c3ccccc3)ccn2)cc(C(C)(C)C(=O)O)c1 [Example 169]	7
Cc1cc(CC(C)(C)C(=O)O)cc(Nc2cc(Oc3cn(C4CC4)nc3-c3ccccc3)ccn2)c1 [Example 170]	14
O=C(O)CCc1cccc(Nc2cc(Oc3cn(C4CC4)nc3-c3ccccc3)ccn2)c1 [Example 171]	16
Cc1cc(Nc2cc(Oc3cn(C4CCC4)nc3-c3ccccc3)ccn2)cc(C(C)(C)C(=O)O)c1 [Example 172]	120
O=C(O)CCc1cccc(Nc2cc(Oc3cn(C4CCC4)nc3-c3ccccc3)ccn2)c1 [Example 173]	26
CCc1nc(C)c(Oc2ccnc(Nc3cccc(CC4(C(=O)O)COC4)c3)c2)cc1C [Example 174, 3-(3-((4-((6-ethyl-2,5-dimethylpyridin-3-yl)oxy)pyridin-2-yl)amino)benzyl)oxetane-3-carboxylic acid]	57
Cc1cc(Oc2ccnc(Nc3cccc(CC(C)(C)c4nn[nH]n4)c3)c2)c(-c2ccccn2)nc1C [Example 176]	150
COc1ccc(Nc2cc(Oc3cc(C)c(C)nc3-c3ccccn3)ccn2)cc1CCc1nn[nH]n1 [Example 177]	150
